Reference: patent publication US10364226B2, “Pyridazinone compounds and uses thereof” (priority 2013, dated 2019)

How the values were obtained:
[1] = tested on: Influenza strain A549 A/WSN/33 (H1N1); experiment: Influenza Antiviral Assay; type: cell-based, Influenza A virus; conditions: Influenza A virus, A549, 20 h, neuraminidase fluorescence readout, read-out: % Inhibition
EN PA = EN PA (Influenza A virus, UniProt P15659); experiment: EN PA FRET Inhibition Assay; type: biochemical; conditions: read-out: Potency

O=C(NCc1ccccc1)c1nn(CC2(c3ccncc3)CCCC2)cc(O)c1=O [Compound 825]
EC50 [1]: < 20000 nM | IC50 (EN PA): 100 to 1000 nM

O=C(NCc1ccccc1)c1nn(CC2(c3cccc(C(F)(F)F)c3)CCCC2)cc(O)c1=O [Compound 509]
EC50 [1]: < 20000 nM | IC50 (EN PA): 100 to 1000 nM

CCOC(=O)[C@H]1[C@@H]2CC(Cn3cc(O)c(=O)c(C(=O)NC)n3)(n3cc(C)c4cccnc43)C[C@@H]21 (some centres unmarked) [Compound 874]
EC50 [1]: > 100000 nM | IC50 (EN PA): 100 to 1000 nM

CNC(=O)c1nn(CC2(n3c4c(c5ccccc53)CCC4)CCCC2)cc(O)c1=O [Compound 891]
EC50 [1]: < 20000 nM | IC50 (EN PA): < 100 nM

CNC(=O)c1nn(CC2(n3cc(C(F)(F)F)c4cccnc43)CCCC2)cc(O)c1=O [Compound 681]
EC50 [1]: < 20000 nM | IC50 (EN PA): < 100 nM

CC(C)c1cccc(C2(Cn3cc(O)c(=O)c(C(N)=O)n3)CCCC2)c1 [Compound 730]
EC50 [1]: < 20000 nM | IC50 (EN PA): < 100 nM

CCn1cc(C2(Cn3cc(O)c(=O)c(C(=O)NC)n3)CCCC2)c2ccccc21 [Compound 862]
EC50 [1]: > 100000 nM | IC50 (EN PA): 100 to 1000 nM

O=C(O)c1nn(CCc2c[nH]c3ccccc23)cc(O)c1=O [Compound 407]
EC50 [1]: > 100000 nM | IC50 (EN PA): 100 to 1000 nM

CCCNC(=O)c1nn(CC2(n3cc(C)c4cccnc43)CCCC2)cc(O)c1=O [Compound 756]
EC50 [1]: < 20000 nM | IC50 (EN PA): < 100 nM

CNC(=O)c1nn(CC2(n3ccc4ccc(C)cc43)CCCC2)cc(O)c1=O [Compound 810]
EC50 [1]: < 20000 nM | IC50 (EN PA): < 100 nM

C=Cc1cccc(C2(Cn3cc(O)c(=O)c(C(=O)NC)n3)CCCC2)c1 [Compound 738]
EC50 [1]: < 20000 nM | IC50 (EN PA): < 100 nM

CNC(=O)c1nn(CC2(c3ccccc3)CC(C)(C)C2)cc(O)c1=O [Compound 778]
EC50 [1]: 20000 to 100000 nM | IC50 (EN PA): < 100 nM

CNC(=O)c1nn(CC2(n3ccc4cc(C)cnc43)CCCC2)cc(O)c1=O [Compound 872]
EC50 [1]: < 20000 nM | IC50 (EN PA): < 100 nM

Cc1cn(C2(Cn3cc(O)c(=O)c(C(=O)NCCO)n3)CCCC2)c2ncccc12 [Compound 761]
EC50 [1]: < 20000 nM | IC50 (EN PA): < 100 nM

CCOC(=O)Oc1cn(CC2(n3cc(C)c4cccnc43)CCCC2)nc(C(=O)NC)c1=O [Compound 775]
EC50 [1]: < 20000 nM | IC50 (EN PA): < 100 nM

Cc1cn(C2(Cn3cc(O)c(=O)c(C(=O)C(C)C)n3)CCCC2)c2ncccc12 [Compound 833]
EC50 [1]: < 20000 nM | IC50 (EN PA): < 100 nM

CNC(=O)c1nn(CCC2c3ccccc3CCc3ccccc32)cc(O)c1=O [Compound 839]
EC50 [1]: > 100000 nM | IC50 (EN PA): 100 to 1000 nM

CNC(=O)c1nn(CCC2CCCCC2)cc(O)c1=O [Compound 606]
EC50 [1]: 20000 to 100000 nM | IC50 (EN PA): ≥ 1000 nM

CNC(=O)c1nn(CC2(c3cccc4[nH]ncc34)CCCC2)cc(O)c1=O [Compound 871]
EC50 [1]: > 100000 nM | IC50 (EN PA): < 100 nM

O=C(NCc1ccc(F)c(Cl)c1)c1nn(CC2(c3ccncc3)CCCC2)cc(O)c1=O [Compound 809]
EC50 [1]: < 20000 nM | IC50 (EN PA): < 100 nM

CNC(=O)c1nn(-c2ccccc2-c2ccccc2-c2ccccc2)cc(O)c1=O [Compound 518]
EC50 [1]: < 20000 nM | IC50 (EN PA): 100 to 1000 nM

O=C(NCc1ccccc1)c1nn(-c2ccccc2S(=O)(=O)c2ccccc2)cc(O)c1=O [Compound 605]
EC50 [1]: 20000 to 100000 nM | IC50 (EN PA): 100 to 1000 nM

O=C(O)c1nn(CC2(c3cccc(Br)c3)CCCC2)cc(O)c1=O [Compound 683]
EC50 [1]: > 100000 nM | IC50 (EN PA): < 100 nM

CNC(=O)c1nn(CC2(n3cc(C)c4cccnc43)CCCC2)cc(OC(=O)C(C)C)c1=O [Compound 678]
EC50 [1]: < 20000 nM | IC50 (EN PA): < 100 nM

Cc1ccc(OC(C)C)c(-c2ccccc2-n2cc(O)c(=O)c(C(=O)O)n2)c1 [Compound 314]
EC50 [1]: > 100000 nM | IC50 (EN PA): 100 to 1000 nM

O=C(O)c1nn(-c2ccccc2-c2ccccc2OC2CCCC2)cc(O)c1=O [Compound 319]
EC50 [1]: < 20000 nM | IC50 (EN PA): 100 to 1000 nM

CNC(=O)c1nn(CC2(n3ccc4c(Cl)cccc43)CCCC2)cc(O)c1=O [Compound 856]
EC50 [1]: < 20000 nM | IC50 (EN PA): < 100 nM

CNC(=O)c1nn(CC2(n3cc(Cl)c4cc(Cl)cnc43)CCCC2)cc(O)c1=O [Compound 887]
EC50 [1]: < 20000 nM | IC50 (EN PA): < 100 nM

O=C(O)c1nn(-c2ccccc2Oc2ccccc2)cc(O)c1=O [Compound 9]
EC50 [1]: > 100000 nM | IC50 (EN PA): 100 to 1000 nM

O=C(O)c1nn(Cc2ccccc2-c2ccccc2)cc(O)c1=O [Compound 403]
EC50 [1]: > 100000 nM | IC50 (EN PA): < 100 nM

O=C(c1nn(CC2(c3cccc(C(F)(F)F)c3)CCCC2)cc(O)c1=O)N1CCC(F)(F)C1 [Compound 502]
EC50 [1]: < 20000 nM | IC50 (EN PA): ≥ 1000 nM

CNC(=O)c1nn(CC(C)(C)n2cc(C(F)(F)F)c3cccnc32)cc(O)c1=O [Compound 704]
EC50 [1]: < 20000 nM | IC50 (EN PA): < 100 nM

CNC(=O)c1nn(CC2(n3ccc4ccc(F)cc43)CCCC2)cc(O)c1=O [Compound 861]
EC50 [1]: < 20000 nM | IC50 (EN PA): < 100 nM

CNC(=O)c1nn(CC2(Cn3cc(C)c4cccnc43)CCCC2)cc(O)c1=O [Compound 858]
EC50 [1]: > 100000 nM | IC50 (EN PA): 100 to 1000 nM

CCCC(Cn1cc(O)c(=O)c(C(=O)NC)n1)n1cc(C)c2cccnc21 (centres unmarked) [Compound 791]
EC50 [1]: < 20000 nM | IC50 (EN PA): 100 to 1000 nM

CNC(=O)c1nn(CC2(c3cccc(C(F)(F)F)c3)CC2)cc(O)c1=O [Compound 621]
EC50 [1]: < 20000 nM | IC50 (EN PA): 100 to 1000 nM

CNC(=O)c1nn(CC2(n3nc(C)c4ccccc43)CCCC2)cc(O)c1=O [Compound 824]
EC50 [1]: < 20000 nM | IC50 (EN PA): 100 to 1000 nM

CNC(=O)c1nn(CC2(n3ccc4c(F)cccc43)CCCC2)cc(O)c1=O [Compound 859]
EC50 [1]: < 20000 nM | IC50 (EN PA): < 100 nM

CNC(=O)c1nn(CCN2c3ccccc3COc3ccccc32)cc(O)c1=O [Compound 842]
EC50 [1]: > 100000 nM | IC50 (EN PA): 100 to 1000 nM

CNC(=O)c1nn(CC2(c3ccc(C(C)C)cc3)CCCC2)cc(O)c1=O [Compound 687]
EC50 [1]: < 20000 nM | IC50 (EN PA): < 100 nM

CCc1ccc(C2(Cn3cc(O)c(=O)c(C(=O)NC)n3)CCCC2)cc1 [Compound 747]
EC50 [1]: < 20000 nM | IC50 (EN PA): < 100 nM

CC1(C)CCC(Cn2cc(O)c(=O)c(C(=O)NCc3ccccc3)n2)(c2ccccc2)C1 (centres unmarked) [Compound 796]
EC50 [1]: > 100000 nM | IC50 (EN PA): 100 to 1000 nM

NC(=O)c1nn(CC2(c3cccc(-c4ccccc4)c3)CCCC2)cc(O)c1=O [Compound 722]
EC50 [1]: > 100000 nM | IC50 (EN PA): < 100 nM

O=C(O)c1nn(-c2ccccc2S(=O)(=O)c2ccccc2)cc(O)c1=O [Compound 24]
EC50 [1]: > 100000 nM | IC50 (EN PA): < 100 nM

CNC(=O)c1nn(CC2(c3ccc4c(C)cccc4c3)CCCC2)cc(O)c1=O [Compound 897]
EC50 [1]: < 20000 nM | IC50 (EN PA): < 100 nM

O=C(O)c1nn(CCC2CCCCC2)cc(O)c1=O [Compound 421]
EC50 [1]: > 100000 nM | IC50 (EN PA): 100 to 1000 nM

CCOC(=O)c1nn(CCc2ccccc2C(F)(F)F)cc(O)c1=O [Compound 408]
EC50 [1]: 20000 to 100000 nM | IC50 (EN PA): ≥ 1000 nM

CNC(=O)c1nn(CC2(n3c4c(c5cccnc53)CCC4)CCCC2)cc(O)c1=O [Compound 813]
EC50 [1]: < 20000 nM | IC50 (EN PA): < 100 nM

O=C(NCc1cccnc1)c1nn(CC2(c3ccccc3)CCCC2)cc(O)c1=O [Compound 664]
EC50 [1]: > 100000 nM | IC50 (EN PA): 100 to 1000 nM

COc1ccc(CNC(=O)c2nn(CC3(c4cccc(C(F)(F)F)c4)CCCC3)cc(O)c2=O)cc1 [Compound 525]
EC50 [1]: < 20000 nM | IC50 (EN PA): 100 to 1000 nM

CC(C)(CO)NC(=O)c1nn(CC2(n3ccc4cccnc43)CCCC2)cc(O)c1=O [Compound 867]
EC50 [1]: < 20000 nM | IC50 (EN PA): < 100 nM

O=C(NCc1ccc2[nH]ncc2c1)c1nn(CC2(c3cccc(C(F)(F)F)c3)CCCC2)cc(O)c1=O [Compound 669]
EC50 [1]: > 100000 nM | IC50 (EN PA): < 100 nM

CNC(=O)c1nn(CC(C)(C)c2ccc(C)cc2)cc(O)c1=O [Compound 607]
EC50 [1]: < 20000 nM | IC50 (EN PA): 100 to 1000 nM

O=C(NCC1CC1)c1nn(CC2(n3cc(Cl)c4cccnc43)CCCC2)cc(O)c1=O [Compound 760]
EC50 [1]: < 20000 nM | IC50 (EN PA): < 100 nM

CNC(=O)c1nn(CC2(n3ccc4c(C)cccc43)CCCC2)cc(O)c1=O [Compound 857]
EC50 [1]: < 20000 nM | IC50 (EN PA): < 100 nM

CCN(CC)S(=O)(=O)c1ccc(OC)c(-n2cc(O)c(=O)c(C(=O)O)n2)c1 [Compound 2, 1-(5-(N,N-diethylsulfamoyl)-2-methoxyphenyl)-5-hydroxy-4-oxo-1,4-dihydropyridazine-3-carboxylic acid]
EC50 [1]: > 100000 nM | IC50 (EN PA): 100 to 1000 nM

CNC(=O)c1nn(CC2(n3cc(C)c4cccnc43)CCCC2)cc(OC(=O)OCC(C)C)c1=O [Compound 764]
EC50 [1]: < 20000 nM | IC50 (EN PA): < 100 nM

CNC(=O)c1nn(CC2(n3cc(OC)c4cccnc43)CCCC2)cc(O)c1=O [Compound 892]
EC50 [1]: < 20000 nM | IC50 (EN PA): < 100 nM

CCNC(=O)c1nn(CC2(n3cc(C)c4cccnc43)CCCC2)cc(O)c1=O [Compound 741]
EC50 [1]: < 20000 nM | IC50 (EN PA): < 100 nM

Cc1cn(C2(Cn3cc(O)c(=O)c(C(=O)NCC(C)(C)CNC(=O)OC(C)(C)C)n3)CCCC2)c2ncccc12 [Compound 869]
EC50 [1]: < 20000 nM | IC50 (EN PA): 100 to 1000 nM

Cc1cn(C2(Cn3cc(O)c(=O)c(C(=O)NCCCO)n3)CCCC2)c2ncccc12 [Compound 759]
EC50 [1]: < 20000 nM | IC50 (EN PA): < 100 nM

O=C(NCc1ccc(F)c(Cl)c1)c1nn(CC2(c3ccccc3)CCCC2)cc(O)c1=O [Compound 709]
EC50 [1]: < 20000 nM | IC50 (EN PA): < 100 nM

Cc1cn(C2(Cn3cc(O)c(=O)c(C(=O)NC(C)(C)CO)n3)CCCC2)c2ncccc12 [Compound 820]
EC50 [1]: < 20000 nM | IC50 (EN PA): < 100 nM

CNC(=O)c1nn(CC2(n3cc(C(C)=O)c4cc(C)cnc43)CCCC2)cc(O)c1=O [Compound 894]
EC50 [1]: < 20000 nM | IC50 (EN PA): < 100 nM

O=C(NCc1ccccc1)c1nn(CC2(c3cccnc3)CCCC2)cc(O)c1=O [Compound 807]
EC50 [1]: < 20000 nM | IC50 (EN PA): < 100 nM

CC1CCCN(c2ccccc2-n2cc(O)c(=O)c(C(=O)O)n2)C1 (centres unmarked) [Compound 210]
EC50 [1]: > 100000 nM | IC50 (EN PA): 100 to 1000 nM

CNC(=O)c1nn(CC2(n3cc(C)c4cccnc43)CCCCC2)cc(OC(=O)OC(C)(C)C)c1=O [Compound 806]
EC50 [1]: < 20000 nM | IC50 (EN PA): < 100 nM
